Experimental data as given in patent US7323479B2, “Methods for treatment and management of brain cancer using 1-oxo-2-(2,6-dioxopiperidin-3-yl)-4-methylisoindoline” (Celgene Corporation, priority 2002, dated 2008).

Tests used:
[1] = Pharmacokinetics of Actimid in relapsed/refractory multiple myeloma patients; type: in vivo, human; conditions: for AUC: AUC(0-τ); for Vd/F: Vz/f; for half-life: t½
Procedure: 4-(Amino)-2-(2,6-dioxo(3-piperidyl))-isoindoline-1,3-dione (Actimid™) was administered to patients with relapsed/refractory multiple myeloma. The study was conducted in compliance with Good Clinical Practices. Patients were at least 18 years old, had been diagnosed with multiple myeloma (with paraprotein in serum and/or urine), and were considered refractory to treatment after at least two cycles of treatment, or have relapsed after two cycles of treatment.
4-(Amino)-2-(2,6-dioxo(3-piperidyl))-isoindoline-1,3-dione is administered to patients at doses of 1, 2, 5, or 10 mg/day for up to four weeks; at each dose level, three patients are initially enrolled. Dosing occurs at approximately the same time each morning; all doses are administered in the fasted state (no eating for at least two hours prior to dosing and two hours after dosing). 4-(Amino)-2-(2,6-dioxo(3-piperidyl))-isoindoline-1,3-dione doses are administered in an ascending fashion such that patients in the first cohort receive the lowest dose of 4-(amino)-2-(2,6-dioxo(3-piperidyl))-isoindoline-1,3-dione (1 mg/day) and escalation to the next higher dose level occurs only following the establishment of safety and tolerability at the current dose. If one out of three patients at any dose level experience dose limiting toxicity (DLT), three additional patients are enrolled at that dose. If none of the three additional patients experience DLT, escalation to the next dose level occurs; dose escalations continue in a similar fashion until the MTD is established or the maximum daily dose (10 mg/day) is attained. However, if one of the three additional patients enrolled experiences DLT, the MTD has been reached. If two or more of the three additional patients enrolled experience DLT, the MTD is judged to have been exceeded and three additional patients are enrolled at the preceding dose level to confirm the MTD. Once the MTD has been identified, four additional patients are enrolled at that dose level so that a total of 10 patients is treated at the MTD.
Blood sampling for analysis of pharmacokinetic parameters is performed on Days 1 and 28 according to the following sampling schedule: pre-dose, 0.25, 0.5, 0.75, 1, 1.5, 2, 2.5, 3, 4, 6, 8, 10, 12, 18, and 24 hours post-dose. An additional blood sample is collected at each weekly visit for the determination of 4-(amino)-2-(2,6-dioxo(3-piperidyl))-isoindoline-1,3-dione levels. Total urine collections are also made with urine pooled according to the following time intervals post-dose: 0 to 4, 4 to 8, 8 to 12, and 12 to 24 hours. Safety assessments are made by monitoring adverse events, vital signs, ECGs, clinical laboratory evaluations (blood chemistry, hematology, lymphocyte phenotyping, and urinalysis), and physical examination at specific times during the study.

IL-2 and IFN-γ = assay: Augmentation of IL-2 and IFN-γ production following TCR activation of PBMC (IL-2) or T-cells (IFN-γ); type: cell-based
TNF-α, IL-1β, and IL-6 = assay: LPS-stimulated production of pro-inflammatory cytokines by PBMC; type: cell-based
IL-10 = assay: LPS-stimulated production of anti-inflammatory cytokine IL-10 by PBMC; type: cell-based
[2] = Cardiovascular and respiratory function in anesthetized dogs; type: in vivo, Beagle dogs
Description: Two groups of Beagle dogs (2/sex/group) are used.

[3] = Phase 1 studies of Revimid in refractory or relapsed multiple myeloma: pharmacokinetics; type: in vivo
Procedure: (§1) Patients were evaluated for adverse events at each visit and the severity of these events was graded according to the National Cancer Institute (NCI) Common Toxicity Criteria. Patients were discontinued if they experienced DLT (Grade 3 or greater non-hematological, or Grade 4 hematological toxicity).
Blood and urine samples were collected for analysis of pharmacokinetic parameters on Days 1 and 28. Blood samples were collected according to the following sampling schedule: pre-dose, 0.25, 0.5, 0.75, 1, 1.5, 2, 2.5, 3, 4, 6, 8, 10, 12, 18, and 24 hours post-dose. In addition, a blood sample was collected at each weekly clinic visit for 3-(4-amino-1-oxo-1,3-dihydro-isoindol-2-yl)-piperidine-2,6-dione determination. Total urine was collected and pooled according to the following time intervals post-dose: 0 to 4, 4 to 8, 8 to 12, and 12 to 24 hours. […] Bone marrow aspirations and/or tissue biopsy are also performed at Months 3, 6 and 12 if a patient's paraprotein serum concentration or 24-hour urine protein excretion declined to the next lower level, based on best response criteria.

[4] = Phase 1 studies of Revimid in refractory or relapsed multiple myeloma: dose limiting toxicity; type: in vivo
Procedure: as §1

[5] = Phase 1 study of Revimid in patients with solid tumors: dose limiting toxicity; type: in vivo; conditions: initial group of 20 patients, 5 escalated to 50 mg/day over 4 weeks
Procedure: Patients who, experienced clinical benefit were permitted to continue on treatment as Named Patients.
The study design dictates that at least 3 patients must be enrolled at a dose level and have completed 28 days of treatment prior to enrollment of patients at the next higher dose level. Patients in the first cohort began dosing at 5 mg/day of 3-(4-amino-1′-oxo-1,3-dihydro-isoindol-2-yl)-piperidine-2,6-dione. […]
If, at any given dose level in either study, one out of three patients experiences toxicity, three additional patients must be treated at that particular dose. If, however, two out of six patients experience DLT, the MTD is judged to have been exceeded. No further dose escalations are to occur and additional patients are to be enrolled at the previous dose level.

metastatic melanoma = assay: Treatment of patients with metastatic melanoma; type: in vivo, human
Procedure: The dose was then increased every seven days to 10 mg/day, 25 mg/day, and 50 mg/day, respectively, for a total of four weeks on therapy.

[6] = multiple myeloma patients, preliminary

## Nc1cccc2c1C(=O)N(C1CCC(=O)NC1=O)C2=O (stereo not drawn) [Actimid, 4-(Amino)-2-(2,6-dioxo(3-piperidyl))-isoindoline-1,3-dione]
[1]; Day 1
  increase in AUC(0-τ) with 5-fold increase in dose: 3.6 fold
  increase in Cmax with five-fold higher dose: 3.2 fold
[1]; Week 4
  increase in AUC(0-τ) with 5-fold increase in dose: 2.3 fold
  increase in Cmax with five-fold higher dose: 2.2 fold
[1]; human, in vivo
  decline of plasma concentrations after reaching Cmax: declined in a monophasic manner
  increase in AUC(0-τ) and Cmax values with increasing dose: almost a dose proportional increase
[1]; human, in vivo, 1 mg
  AUC(0-inf): 153 ng·h/mL
  AUC: 134 ng·h/mL
  Cmax: 15 ng/mL
  Vd/F: 69.5 L
  half-life: 438 min
[1]; human, in vivo, 1 mg, tmax
  Tmax: 3.3 h
[1]; human, in vivo, 2 mg
  AUC(0-inf): 279 ng·h/mL
  AUC: 250 ng·h/mL
  Cmax: 24.4 ng/mL
  Vd/F: 65.3 L
  half-life: 378 min
[1]; human, in vivo, 2 mg, tmax
  Tmax: 2.7 h
[1]; human, in vivo, 5 mg
  AUC(0-inf): 593 ng·h/mL
  AUC: 521 ng·h/mL
  Cmax: 48.6 ng/mL
  Vd/F: 87.2 L
  half-life: 390 min
[1]; human, in vivo, 5 mg, tmax
  Tmax: 2.3 h
[1]; human, in vivo, median Tmax
  Tmax: 2.5 to 2.8 h
[1]; human, in vivo, po, tmax
  Tmax: 3.6 h
[1]; human, in vivo, po
  half-life: 372 min

## Nc1cccc2c1CN(C1CCC(=O)NC1=O)C2=O (stereo not drawn) [Revimid, 3-(4-amino-1-oxo-1,3-dihydro-isoindol-2-yl)-piperidine-2,6-dione]
IL-2 and IFN-γ
  times more potent than thalidomide in augmenting the production of IL-2 and IFN-γ: 50-100 times
TNF-α, IL-1β, and IL-6
  effect on LPS-stimulated production of TNF-α, IL-1β, and IL-6: dose-dependent inhibition
IL-10
  effect on production of IL-10: increased production
[2]; anesthetized dogs, 2, 10, and 20 mg/kg, infusion through the jugular vein, all doses
  cardiovascular and respiratory changes compared to the vehicle control group: minimal
[2]; common to both the control and treated groups
  deviations in femoral blood flow, respiratory parameters, and Qtc interval: not considered treatment-related
[2]; low dose
  duration of the arterial blood pressure effect: approximately 15 minutes
[2]; low dose, increase from 94 mmHg, not seen at higher doses
  arterial blood pressure after small increase: 101 mmHg
[3]; human, in vivo
  half-live in patients, mean: 8 h
  half-live in patients, ranging up to: up to 17 hours
[3]; in vivo
  accumulation with multiple dosing: no evidence of accumulation
  shape of concentration profile: double peaks were observed
[3]; [6]
  clearance compared to healthy volunteers: lower
  exposure (Cmax and AUC) compared to healthy male volunteers: slightly higher
[4]; first cohort of 3 patients, 5 mg/day, 28 days
  dose limiting toxicity (DLT): without any dose limiting toxicity
[4]; second cohort of 3 patients, 10 mg/day
  tolerability: tolerated treatment well
[5]
  DLTs reported: No DLTs
Metastatic melanoma; first four weeks of treatment, 5 escalated to 50 mg/day
  patients showing disease stabilization or a partial response: Five of the 13
Metastatic melanoma; metastatic melanoma patients
  duration of response: approximately six months
  tumor response seen in cutaneous and subcutaneous lesions: five
  tumor response seen in liver: one
  tumor response seen in lymph nodes: two
